Measurements reported in patent US5639751A, “N-acyl-2,3-benzodiazepine derivatives for treating acute and chronic neurodegenerative disorders” (priority 1990, dated 1997).
Where two headings read alike, the source gives them in different places.

Assays:
[1] = Kainate induced spreading depression in isolated chicken retina; type: cell-based; conditions: kainate (5 μM)
Procedure: (§1) Anti-kainate and -AMPA effects were investigated in the in vitro retinal spreading depression model [Brain Res. 607, 189 (1993)]. AMPA/kainate antagonists prolong the latency of the development of spreading depression evoked. by kainate (5 μM), or AMPA (5 μM). In some cases the effect on spreading depression evoked by 100 μM NMDA was also studied to clarify the selectivity.

Acute toxicity in mice = conditions: mouse, in vivo
Procedure: The cause of mortality was respiratory insufficiency developing within 1 to 2 hours after i.p. administration and within 10 to 20 hours after oral application.

male CFLP mice [2] = test: Anticonvulsive effect in mice, pentetrazole; type: in vivo; conditions: Mus musculus, po, read-out: ED50 p.o., Pentetrazole
Procedure: (§2) The anticonvulsive effect of the compounds of the formula (I) was measured by using the electroshock test [J. Pharmacol. Exp. Ther. 106, 319 (1952)], furthermore by using various chemical agents such as pentetrazole [J. Pharmacol. Exp. Ther. 108, 168 (1953)], strychnine [J. Pharmacol. Exp. Ther. 129, 75 (1960)], bemegride, nicotine and 4-aminopyridine. The test compounds were orally administered in 3 doses, to 10 male CFLP mice per dose.

[3] = AMPA induced spreading depression in isolated chicken retina; type: cell-based; conditions: AMPA (5 μM)
Procedure: as §1

cats [4] = test: Effect on spinal (polysynaptic) flexor reflexes in chloralose anaesthetized cats; type: in vivo; conditions: Felis catus, iv
Description: Res. Comm. 20, S1, 141 (1988)].

CFLP mice = test: Inclined screen test in mice; type: in vivo; conditions: Mus musculus, ip, read-out: ED50 i.p., inclined screen test
Description: In Randall's inclined screen test [J. Pharmacol. Exp. Ther. 129, 163 (1960)] the compounds were applied in 3 i.p. doses to 10 CFLP mice per dose.

mice [5] = test: Rotarod test in mice; type: in vivo; conditions: Mus musculus, ip, read-out: ED50 i.p., rotarod test
Description: The rotarod test was used to measure muscular tone and motor co-ordination [J. Am. Pharm. Assoc. 46, 208 (1957)].

male CFLP mice [6] = test: Anticonvulsive effect in mice, electroshock test; type: in vivo; conditions: Mus musculus, po, read-out: ED50 p.o., ES (electroshock)
Procedure: as §2

AMPA/kainate receptors = test: Inhibition of synaptic field potentials (population spikes) in rat hippocampal slices; type: cell-based; conditions: population spikes in CA1, after 30 min. perfusion
Procedure: Synaptic potentials in the CA1 area of hippocampus evoked by stimulation of the Schaffer collaterals are mediated by AMPA/kainate receptors. […] Lett. 92, 64 (1988)].
The inhibition of population spikes in CA1 was studied in rat hippocampal slices after 30 min. perfusion application of the test compounds.

mice [7] = test: Protection against methamphetamine-induced dopaminergic neurotoxicity, in mice; type: in vivo; conditions: METH 2×20 mg/kg i.p., Example 128 3×5 mg/kg i.p., MK-801 3×2.5 mg/kg i.p.
Procedure: High doses of methamphetamine (2×20 mg/kg i.p.) decrease the striatal level of dopamine, which can be prevented by glutamate antagonists, e.g. the NMDA-antagonist MK-801 [Science 243, 398 (1989)].

male CFLP mice [8] = test: Anticonvulsive effect in mice, nicotine; type: in vivo; conditions: Mus musculus, po
Procedure: as §2

AMPA receptors = test: Inhibition of synaptic field potentials in rat neocortex slices; type: cell-based
Description: Similarly as in hippocampal CA1 area, glutamate is the main excitatory transmitter in the neocortex, and dominantly AMPA receptors are involved in mediation of synaptic responses evoked by stimulation of the white matter and recorded from the area adjacent to the site of stimulation [J. Neurophysiol. 64, 1282 (1990)]. The inhibitory effect on such field potentials was studied in rat neocortex slices, maintained in Vitro, according to Fletcher et al. [Br. J. Pharmacol. 95, 585 (1988)].

AMPA receptor = test: Inhibition of quisqualate induced DC potentials in rat neocortex slices; type: cell-based
Procedure: The AMPA antagonist effect was tested in rat neocortex slices by using a method similar to that of Harrison and Simmonds [Br. J. Pharmacol. 84, 381 (1985)].

NMDA [9] = test: NMDA induced responses (DC potentials) in rat neocortex slices; type: cell-based
cats [10] = test: Effects on spinal root reflex potentials in spinalized and immobilized cats; type: in vivo; conditions: Felis catus, iv
Procedure: The effect of compound of Example 15(16) on the spinal root potentials in cats was tested in spinalized and immobilized animals [Neuropharmacology 21, 161 (1989)].

male CFLP mice [11] = test: Anticonvulsive effect in mice, strychnine; type: in vivo; conditions: Mus musculus, po, read-out: ED50 p.o., Strychnine
Procedure: as §2

male CFLP mice [12] = test: Anticonvulsive effect in mice, 4-aminopyridine; type: in vivo; conditions: Mus musculus, po, read-out: ED50 p.o., 4-AP (4-aminopyridine)
Procedure: as §2

male CFLP mice [13] = test: Anticonvulsive effect in mice, bemegride; type: in vivo; conditions: Mus musculus, po, read-out: ED50 p.o., Bemegride
Procedure: as §2

NMDA [14] = test: NMDA evoked spreading depression in isolated chicken retina; type: cell-based; conditions: spreading depression evoked by 100 μM NMDA
Procedure: as §1

[15] = system: [^3 H]-AMPA specific binding sites in CNS membrane preparations; conditions: Neuroreport 5, 93 (1993); cited from earlier work
[16] = system: [^3 H]-kainate specific binding sites in CNS membrane preparations; conditions: Neuroreport 5, 93 (1993); cited from earlier work
[17] = * <20% inhibition at the highest dose applied, read-out: ED50, DRP (dorsal root potential)
[18] = * <20% inhibition at the highest dose applied, read-out: ED50, DRR (dorsal root reflex)
[19] = read-out: ED50, MSR (monosynaptic ventral root reflex)
[20] = read-out: ED50, PSR (polysynaptic ventral root reflex)

| Compound | IC50 [1] [µM] | LD50 (Acute toxicity in mice; ip, read-out: LD50 i.p.) [mg/kg] | LD50 (Acute toxicity in mice; po, read-out: LD50 p.o.) [mg/kg] | ED50 (male CFLP mice [2]) [mg/kg] | IC50 [3] [µM] | ED50 (cats [4]) [mg/kg] | ED50 (CFLP mice) [mg/kg] | ED50 (mice [5]) [mg/kg] | ED50 (male CFLP mice [6]) [mg/kg] | IC50 (AMPA/kainate receptors) [µM] | ED50 (male CFLP mice [8]) [mg/kg] | ED50 (male CFLP mice [11]) [mg/kg] | other results |
| --- | --- | --- | --- | --- | --- | --- | --- | --- | --- | --- | --- | --- | --- |
| CNC(=O)N1N=C(c2ccc(N)cc2)c2cc3c(cc2CC1C)OCO3 (single isomer, unassigned; (-)) [Example 123, (-)-1-(4-Aminophenyl)-3-methylcarbamoyl-4-methyl-7,8-methylenedioxy-3,4-dihydro-5H-2,3 benzodiazepine] | 0.5 | ~50 | 75 to 100 | 13.8 | 1.7 | 0.05 | 8.8 | 1.9 | 8.4 | 3.9 | – | – | – |
| CC(=O)N1N=C(c2ccc(N)cc2)c2cc3c(cc2CC1C)OCO3 (single isomer, unassigned; (-)) [Example 128, (-)-1-(4-Aminophenyl)-3-acetyl-4-methyl-7,8-methylenedioxy-3,4-dihydro-5H-2,3-benzodiazepine] | 2.7 | 73.5 | ~100 | – | 1 | 0.13 | – | – | – | 7.8 | – | – | ED50 (male CFLP mice [2]; mice, p.o.): 16.8 mg/kg; ED50 (mice [5]; mice, i.p.): 2.3 mg/kg; ED50 (male CFLP mice [6]; mice, p.o.): 5.3 mg/kg; (DOPAC + HVA)/DA, % (mice [7]; % of saline group): 144%; DA, % (mice [7]; % of saline group): 48%; (DOPAC + HVA)/DA, mean ± SE (mice [7]; striatal dopamine turnover): 0.36 ± 0.10; DA, μg/g tissue, mean ± SE (mice [7]; striatal dopamine): 7.17 ± 1.89 μg/g tissue |
| N#Cc1cc2[nH]c(=O)c(=O)[nH]c2cc1[N+](=O)[O-] [CNQX, 1,2,3,4-tetrahydro-7-nitro-2,3-dioxo-quinoxalinecarbonitrile, reference compound] | – | – | – | – | – | – | – | – | – | 1.4 | – | – | – |
| CC(=O)N1N=C(c2ccc(N)cc2)c2cc3c(cc2CC1C)OCO3 (stereo not shown) [Example 15 (16), 1-(4-Aminophenyl)-3-acetyl-4-methyl-7,8-methylenedioxy-3,4-dihydro-5H-2,3-benzodiazepine] | 5.1 | 127 | 130 | – | 3.7 | 0.36 | – | – | – | 24.8 | 45 | > 200 | ED50 (male CFLP mice [2]; mice, p.o.): 46.8 mg/kg; IC50 (AMPA receptors): 21.5 µM; Inhibition of induced field potentials in % of control (AMPA receptors; concentration 10 μM): 30%; Inhibition of induced field potentials in % of control (AMPA receptors; concentration 20 μM): 47%; Inhibition of induced field potentials in % of control (AMPA receptors; concentration 40 μM): 69%; Inhibition of induced field potentials in % of control (AMPA receptors; concentration 80 μM): 82%; Activity relative to the reference compound GYKI 52466 in inhibiting the response to quisqualate (AMPA receptor; 2-minute perfusion with 10 μM of quisqualate, corresponding concentrations): twice as active; Effect on the responses induced by NMDA (NMDA [9]): failed to affect; ED50 (cats [10]; [17]): > 1.6 mg/kg; ED50 (cats [10]; [18]): > 1.6 mg/kg; ED50 (cats [10]; [19]): 0.69 mg/kg; ED50 (cats [10]; [20]): 0.77 mg/kg; ED50 (CFLP mice; mice, i.p.): 23.5 mg/kg; ED50 (male CFLP mice [12]; mice, p.o.): 9 mg/kg; ED50 (mice [5]; mice, i.p.): 3.7 mg/kg; ED50 (male CFLP mice [6]; mice, p.o.): 12 mg/kg; ED50 (male CFLP mice [13]; mice, p.o.): 16 mg/kg |
| CNC(=O)N1N=C(c2ccc(N)cc2)c2cc3c(cc2CC1C)OCO3 (stereo not shown) [Example 98, 1-(4-Aminophenyl)-3-methylcarbamoyl-4-methyl-7,8-methylenedioxy-3,4-dihydro-5H-2,3-benzodiazepine] | – | 93.1 | 96.6 | 21.3 | – | 0.14 | 18 | 8.6 | 17.1 | 12.6 | 19 | 29 | ED50 (male CFLP mice [12]): 13.5 mg/kg; ED50 (male CFLP mice [13]): 11 mg/kg |
| CC1=NN=C(c2ccc(N)cc2)c2cc3c(cc2C1)OCO3 [GYKI 52466, 1-(4-aminophenyl)-4-methyl-7,8-methylenedioxy-5H-2,3-benzodiazepine, reference compound] | 9.5 | – | – | 115 | 6.3 | 0.9 | 47 | 24 | 38 | 31.7 | 70 | 87 | NMDA antagonist effect, times weaker than AMPA antagonist effect (NMDA [14]): ≥ 10 times; Displacement of [3H]-AMPA from specific binding sites [15]: displace neither; IC50 (AMPA receptors): 30 µM; Inhibition of induced field potentials in % of control (AMPA receptors; concentration 10 μM): 22%; Inhibition of induced field potentials in % of control (AMPA receptors; concentration 20 μM): 39%; Inhibition of induced field potentials in % of control (AMPA receptors; concentration 40 μM): 62%; Inhibition of induced field potentials in % of control (AMPA receptors; concentration 80 μM): 73%; Inhibition of DC-potential changes induced by perfusion of quisqualate (AMPA receptor; concentration range of 10-50 μM): dose-dependently inhibited; Effect on the responses induced by NMDA (NMDA [9]): failed to affect; ED50 (cats [10]; [17]): > 4 mg/kg; ED50 (cats [10]; [18]): > 4 mg/kg; ED50 (cats [10]; [19]): 2.2 mg/kg; ED50 (cats [10]; [20]): 2.3 mg/kg; Displacement of [3H]-kainate from specific binding sites [16]: displace neither; ED50 (male CFLP mice [12]): 43 mg/kg; ED50 (male CFLP mice [13]): 73 mg/kg |
| NS(=O)(=O)c1cccc2c1c([N+](=O)[O-])cc1[nH]c(=O)c(=O)[nH]c12 [NBQX, 1,2,3,4-tetrahydro-6-nitro-2,3-dioxo-benzo(f)quinoxaline-7-sulfonamide, reference compound] | – | – | – | – | – | 0.91 | – | – | – | – | – | – | – |
